{"source": "patent US7186702B2", "about": "“Method of treating leishmaniasis using methyl-beta-cyclodextrin” (priority 2002, dated 2007)", "key": {"J774A.1 macrophages": {"system": "J774A.1 macrophages", "experiment": "Cholesterol depletion and estimation (Amplex Red cholesterol assay kit)", "assay_type": "cell-based, murine", "protocol": "(§1) Cells and cell culture. A murine macrophage cell line J774A.1 (American Type Culture Collection, Rockville, Md.) was used. The cells were maintained at 37° C. in RPMI-1640 medium containing 10% heat inactivated fetal calf serum (FCS)(Biological Industries, Israel) in a CO2 incubator (5% CO2) as described previously^10. The macrophages were seeded onto tissue culture plates (60 mm) at a density of 1×10^5 cells/plate and grown for 48 hrs before use.\n(§2) Cholesterol depletion and estimation. J774A.1 cells grown on culture dishes were depleted of cholesterol by incubating for 30 min with 5 or 10 mM methyl-β-cyclodextrin (Sigma) at 37° C. in serum free medium^13,23. Total cellular cholesterol was estimated using Amplex Red cholesterol assay kit^27 (Molecular Probes). Cholesterol values were normalized to protein levels estimated using BCA assay reagent kit^28 (Pierce)."}, "[1]": {"system": "Leishmania donovani strain AG83", "experiment": "Ligand binding assay of [3H]thymidine labeled promastigotes to macrophages", "assay_type": "cell-based", "settings": "10 mM, J774A.1 macrophages, parasite:macrophage 10:1, assayed till 90 min", "protocol": "as §1\n(§3) Parasite culture. Leishmania donovani strain AG83 (MHOM/IN/1983/AG83) promastigotes were maintained at 24° C. in modified M-199 medium (Gibco/BRL) supplemented with 100 units/ml penicillin (Sigma, U.S.A.), 100 µg/ml streptomycin (Sigma, U.S.A.), and 10% heat inactivated FCS.\n(§4) Cholesterol depletion and estimation. […]\n(§5) Infecting macrophages with Leishmania. […] The monolayers were gently scraped to resuspend the macrophage-parasite complexes and the resulting cell suspension was analyzed either for radiolabel incorporation or macrophage-associated fluorescence. The percentage of infected macrophages was >95% after 3 hr with 5–8 amastigotes per macrophage as determined by Giemsa staining.\n(§6) Labeling L. donovani AG83 promastigotes with tritium or FITC for binding studies. […] The fluorescence from the FITC-labeled parasites associated with the macrophages was analyzed with a Beckman Coulter ELITE ESP flow cytometer (Miami, Fla.) using EXPO 32 software."}, "[2]": {"system": "Leishmania donovani strain AG83", "experiment": "Flow cytometric analysis of binding of FITC-labeled promastigotes to macrophages", "assay_type": "cell-based", "settings": "10 mM, J774A.1 macrophages, parasite:macrophage 10:1, especially after 90 min", "protocol": "as §1, §3, §4, §5, §6"}, "[3]": {"system": "Leishmania donovani strain AG83", "experiment": "Intracellular amastigote count in infected macrophages by Giemsa staining", "assay_type": "cell-based", "settings": "J774A.1 macrophages", "protocol": "as §1, §3, §2\nInfecting macrophages with Leishmania. Promastigotes were added onto the macrophage monolayers (both control and cholesterol-depleted) at a parasite: macrophage ratio of 10:1. The parasite-macrophage interaction was allowed to progress for 15, 30 and 90 min at 37° C. At the end of incubation, monolayers were washed with phosphate buffered saline (PBS) to remove free parasites and placed on ice to loosen adherent cells from the plates. The monolayers were gently scraped to resuspend the macrophage-parasite complexes and the resulting cell suspension was analyzed either for radiolabel incorporation or macrophage-associated fluorescence. The percentage of infected macrophages was >95% after 3 hr with 5–8 amastigotes per macrophage as determined by Giemsa staining."}}}
{"substance": "methyl-β-cyclodextrin", "values": [{"measurement": "reduction of cellular cholesterol", "setting": "J774A.1 macrophages; 10 mM, 30 min incubation, total cellular cholesterol", "result": "~40", "unit": "%"}, {"measurement": "total cellular cholesterol upon treatment (FIG. 1)", "setting": "J774A.1 macrophages; 5 or 10 mM", "result": "concentration-dependent reduction"}, {"measurement": "reduction in macrophage-parasite interaction (attachment) compared to control cells", "setting": "[1]", "result": "~45", "unit": "%"}, {"measurement": "fluorescence associated with cholesterol-depleted macrophages compared to control (FIG. 3)", "setting": "[2]", "result": "pronounced reduction in fluorescence"}, {"measurement": "number of amastigotes present compared to control cells", "setting": "[3]; 5 mM, multiplicity of infection 10:1, 3 hr", "result": "concomitant reduction in the number of amastigotes"}, {"measurement": "amastigotes present compared to control cells", "setting": "[3]; 10 mM", "result": 50, "unit": "%"}, {"measurement": "reduction in the number of intracellular amastigotes", "setting": "[3]; 10 mM, multiplicity of infection 10:1, 3 hr", "result": "~50", "unit": "%"}]}
